Among the data in ChEMBL document CHEMBL3639325, “Fused tricyclic dual inhibitors of CDK 4/6 and FLT3” (2014) are IC50 values, retold here.

The target of test [1] is Cyclin-dependent kinase 4 (Homo sapiens, UniProt P11802). The experiment in a line: Kinase Assay: The CDK4 and CDK1 inhibitory activity of the CDK4/6-FLT3 inhibitors was determined with a filtration kinase assay. The compounds, kinase and substrate diluted in the kinase buffer (20 mM Tris, pH7.4, 50 mM NaCl, 1 mM DTT, 0.1% BSA) were sequentially added to a 96-well Multiscreen HTS filtration plate (Millipore). The final 100 μL reaction mixture in each well contained 0.3 μg of CDK4/Cyclin D1 or CDK1/Cyclin B (Cell Signaling Technology), 1 μg of Rb fragment (aa773-928, Millipore) for the CDK4 assay or 5 μg of histone H1 for the CDK1 assay and 1 μCi of [33P]-ATP. The mixture was incubated at room temperature for 1 hour. The proteins in the reaction were then precipitated and washed with cold TCA solution using an aspiration/filtration vacuum system. The plates were dried at room temperature, and the retained radioactivity was measured by scintillation counting.

Test [2] deals with T1, Receptor-type tyrosine-protein kinase FLT3 (Homo sapiens, UniProt P36888).
T1 sequence (P36888 whole entry): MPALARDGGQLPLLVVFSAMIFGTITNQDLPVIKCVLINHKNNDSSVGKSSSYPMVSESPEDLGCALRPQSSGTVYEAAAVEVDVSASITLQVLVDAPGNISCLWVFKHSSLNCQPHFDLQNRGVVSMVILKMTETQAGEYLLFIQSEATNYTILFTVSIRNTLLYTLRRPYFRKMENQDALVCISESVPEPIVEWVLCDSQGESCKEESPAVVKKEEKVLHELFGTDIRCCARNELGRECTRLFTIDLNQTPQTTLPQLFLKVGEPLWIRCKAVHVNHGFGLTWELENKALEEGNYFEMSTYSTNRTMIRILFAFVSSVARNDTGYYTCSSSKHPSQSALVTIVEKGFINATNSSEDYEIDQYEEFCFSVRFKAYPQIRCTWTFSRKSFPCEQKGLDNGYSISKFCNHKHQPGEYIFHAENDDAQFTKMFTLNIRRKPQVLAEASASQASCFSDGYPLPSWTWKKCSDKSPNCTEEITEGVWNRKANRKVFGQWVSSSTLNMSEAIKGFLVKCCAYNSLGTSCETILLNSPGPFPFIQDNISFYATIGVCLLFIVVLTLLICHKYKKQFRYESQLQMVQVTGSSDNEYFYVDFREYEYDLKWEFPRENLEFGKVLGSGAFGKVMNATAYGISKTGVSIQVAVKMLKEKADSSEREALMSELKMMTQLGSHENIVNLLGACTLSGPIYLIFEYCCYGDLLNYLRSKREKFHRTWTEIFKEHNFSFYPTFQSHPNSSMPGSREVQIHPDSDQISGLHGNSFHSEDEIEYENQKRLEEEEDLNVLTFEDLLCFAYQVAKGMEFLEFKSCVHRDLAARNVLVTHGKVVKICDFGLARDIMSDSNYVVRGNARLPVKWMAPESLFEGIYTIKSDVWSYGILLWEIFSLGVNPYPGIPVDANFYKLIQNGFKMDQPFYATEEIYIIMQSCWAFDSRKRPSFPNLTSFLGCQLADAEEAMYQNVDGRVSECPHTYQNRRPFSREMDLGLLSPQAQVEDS
The test can be described thus: Kinase Assay: The FLT3 inhibitory activity of the CDK4/6-FLT3 inhibitors was determined with a HTRF kinase assay. The FLT3 enzyme (GST-FLT3 fusion) was purchased from Carna Biosciences. An ULight-labeled synthetic peptide derived from human Janus kinase 1 (aa1015-1027, ULight-JAK1, PerkinElmer) was utilized as the phosphoacceptor substrate. The assay was conducted in a 384-well white OptiPlate (PerkinElmer). The 20 μL reaction mixture contained 50 nM ULight-JAK1, 116 μM ATP, 0.0385 ng/μL FLT3 and dilutions of test compounds in the kinase buffer (50 mM Hepes, pH 7.6, 1 mM EGTA, 10 mM MgCl2, 2 mM DTT, and 0.005% Tween 20). The reaction was allowed to proceed for 1 hour at room temperature and was stopped by adding 20 μL of 10 mM EDTA, 2 nM LANCE Eu-W1024 anti-phospho-tyrosine antibody in LANCE detection buffer (PerkinElmer). The plates were incubated at room temperature for 2 hours after addition of detection reagents and then read on an Envision multimode reader (PerkinElmer). (In TR-FRET formats the signal depends on donor and acceptor labels being close together.)

Chain of Cyclin-dependent kinase 4 (P11802 whole entry, the tested form may be a part): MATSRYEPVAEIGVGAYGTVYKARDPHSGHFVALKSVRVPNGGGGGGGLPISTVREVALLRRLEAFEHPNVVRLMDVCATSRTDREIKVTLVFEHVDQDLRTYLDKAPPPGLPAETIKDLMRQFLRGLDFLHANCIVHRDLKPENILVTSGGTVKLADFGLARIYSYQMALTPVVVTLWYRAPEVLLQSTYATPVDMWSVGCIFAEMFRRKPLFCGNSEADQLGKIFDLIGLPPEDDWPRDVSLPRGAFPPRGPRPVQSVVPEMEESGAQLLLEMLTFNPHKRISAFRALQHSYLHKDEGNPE

With `C[C@H]1CC[C@H](n2c3cnccc3c3cnc(Nc4ccc5c(n4)C(O)CN(CCO)C5)nc32)CC1` (some centres not stated), the results for the IC50 in test [1] and in test [2] were 0.0192 µM and 0.0029 µM, respectively.
